The compounds below were run against T1, hPRDM9 (amino acids 195-385) (Homo sapiens, UniProt Q9NQV7) (assay: PRDM9 biochemical assay (radiometric, 3[H] methyl transfer from SAM to biotinylated histone H3 peptide)). Details: 1 nM hPRDM9, 1 μM biotinylated H3(1-25)K4 peptide, 5 μM 3[H]-SAM, 55 μM un-labeled SAM, 25° C., 30 minutes.
T1 construct: 1.25 nM hPRDM9 (amino acids 195-385)
T1 sequence (Q9NQV7 195-385): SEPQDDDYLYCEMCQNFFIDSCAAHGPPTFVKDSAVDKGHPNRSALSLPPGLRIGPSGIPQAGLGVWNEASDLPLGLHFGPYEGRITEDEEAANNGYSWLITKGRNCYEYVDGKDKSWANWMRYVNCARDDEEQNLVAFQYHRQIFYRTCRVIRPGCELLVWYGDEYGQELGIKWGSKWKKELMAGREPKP
Method: The PRDM9 biochemical assay was carried out using a radiometric format involving the transfer of ^3[H] methyl group from S-adenosyl methionine (SAM) to a biotinylated histone H3 peptide (H3(1-25)K4). 10 mM compounds in DMSO were diluted 20 fold in assay buffer (10 mM Tris-HCl, pH 8.5, 10 mM DTT, and 0.01% Triton X-100) before adding […] to a well in a 384 well polypropylene microplate plate and adding 8 μl of reaction mix (1.25 nM hPRDM9 (amino acids 195-385), 1.25 μM biotinylated H3 peptide in assay buffer). The ^3[H]-SAM and cold SAM stock solutions were diluted to 50 μM and 550 μM respectively in assay buffer before aliquoting 1 μl of 50 μM ^3[H]-SAM, 550 μM SAM into each well to initiate the reaction. The assay was performed at 25° C. at the final concentrations of 1 nM hPRDM9, 1 μM peptide, 5 μM ^3[H]-SAM, and 55 μM un-labeled SAM in assay buffer. The reaction was quenched after 30 minutes by adding 25 μl 7.5 M Guanidine-HCl. Quenched reactions were transferred to streptavidin coated Flashplates, diluted two fold in assay buffer, incubated for 1 hour, and read on a Perkin Elmer Topcount instrument. Compound activity was expressed relative to activity of 0.5% (v/v) DMSO treated samples and fit to a four parameter logistic equation to determine IC50 values.

IC50 [µM]	Compound
9	Cc1cc(NCC23CC2CN(c2nc(-c4cc(Cl)cc(Cl)c4)no2)C3)ccn1 (stereo not shown) [Compound 168]
2	COc1cccc(-c2noc(N3CCOC(CCNc4ccnc(C)c4)C3)n2)c1 (stereo not shown) [Compound 169]
0.4	Cc1cc(NCCC2CN(c3nc(-c4cc(Cl)cc(Cl)c4)no3)CCO2)ccn1 (stereo not shown) [Compound 170]
5.29	Cc1cc(NCC2CC(C)N(c3nc(-c4cc(Cl)cc(Cl)c4)no3)C2)ccn1 (stereo not shown) [Compound 172]
5.5	Cc1cc(NCC2CC(C)N(c3nc(-c4cc(Cl)cc(Cl)c4)no3)C2)ccn1 (stereo not shown) [Compound 173]
1.58	Cc1cc(NCC2CN(c3nc(-c4cc(Cl)cc(Cl)c4)no3)CCC2C)ccn1 (stereo not shown) [Compound 174]
3.81	Cc1cc(NCCC2CN(c3nc(-c4cc(Cl)cc(Cl)c4)no3)c3ccccc32)ccn1 (stereo not shown) [Compound 175]
13.6	Cc1cc(NCC2CN(c3nc(-c4cc(Cl)cc(Cl)c4)no3)CCC2C)ccn1 (stereo not shown) [Compound 176]
8.64	Cc1cc(NC2CCC3CN(c4nc(-c5cc(Cl)cc(Cl)c5)no4)CC32)ccn1 (stereo not shown) [Compound 177]
1.15	Cc1cc(NC2CCC3CN(c4nc(-c5cc(Cl)cc(Cl)c5)no4)CC32)ccn1 (stereo not shown) [Compound 178]
24	Cc1cc(N2CC3CCN(c4nc(-c5cc(Cl)cc(Cl)c5)no4)C3C2)ccn1 (stereo not shown) [Compound 212]
11	Cc1cc(N2CCC(CNc3nc(-c4cc(Cl)cc(Cl)c4)no3)C2)ccn1 (stereo not shown) [Compound 215]
35.5	Cc1cc(N2CCC3C(CCN3c3nc(-c4cc(Cl)cc(Cl)c4)no3)C2)ccn1 (stereo not shown) [Compound 218]
9.2	Cc1cc(NCC2=CCCN(c3nc(-c4cc(Cl)cc(Cl)c4)no3)C2)ccn1 [Compound 220]
5.38	Cc1cc(NCC2CCCN(c3nc(-c4cc(Cl)cc(Cl)c4)no3)C2)ccn1 (stereo not shown) [Compound 221]
13.8	Cc1cc(NC(C)C2CCN(c3nc(-c4cc(Cl)cc(Cl)c4)no3)C2)ccn1 (stereo not shown) [Compound 222]
35.5	Cc1cc(NC(C)C2CCN(c3nc(-c4cc(Cl)cc(Cl)c4)no3)C2)ccn1 (stereo not shown) [Compound 227]
29.5	Cc1cc(N2CC[C@H](CNc3nc(-c4cc(Cl)cc(Cl)c4)no3)C2)ccn1 [Compound 235]
≥ 50	Cc1cc(NC(=O)C2CCN(c3nc(-c4cc(Cl)cc(Cl)c4)no3)CC2)ccn1 [Compound 238, 1-(3-(3,5-dichlorophenyl)-1,2,4-oxadiazol-5-yl)-N-(2-methylpyridin-4-yl)piperidine-4-carboxamide]

The remaining lines, values behind:

Compound	IC50 [µM]
COc1cc(OC)cc(-c2noc(N3CCN(C)C4(CN(c5ccnc(C)c5)C4)C3)n2)c1 [Compound 164]	0.315
COc1cccc(-c2noc(N3CCOC4(CCN(c5ccnc(C)c5)CC4)C3)n2)c1 [Compound 166]	0.8
COc1cccc(-c2noc(N3CC4CC4(CNc4ccnc(C)c4)C3)n2)c1 (stereo not shown) [Compound 167]	23
COc1cccc(-c2noc(N3CCC(CCNc4ccnc(C)c4)C3)n2)c1 (stereo not shown) [Compound 171]	4
COc1cc(OC)cc(-c2noc(N3Cc4ccccc4C4(CCN(c5ccnc(C)c5)CC4)C3)n2)c1 [Compound 180]	0.08
COc1cc(OC)cc(-c2noc(N3CC(c4ccccc4)OC4(CCN(c5ccnc(C)c5)CC4)C3)n2)c1 (stereo not shown) [Compound 181]	2.14
COc1cc(OC)cc(-c2noc(N3CCCC4(CN(c5ccnc(C)c5)C4)C3)n2)c1 [Compound 182]	0.163
COc1cc(OC)cc(-c2noc(N3CC(F)(F)OC4(CCN(c5ccnc(C)c5)CC4)C3)n2)c1 [Compound 184]	0.814
COc1cc(OC)cc(-c2noc(N3CCC(O)C4(CCN(c5ccnc(C)c5)CC4)C3)n2)c1 (stereo not shown) [Compound 186]	0.217
COc1cc(OC)cc(-c2noc(N3CCCC4(CCN(c5cc(C)nc(F)c5)CC4)C3)n2)c1 [Compound 188]	45
COc1cc(N2CC3(CCCN(c4nc(-c5cc(Cl)cc(Cl)c5)no4)C3)C2)ccn1 [Compound 193]	2
Clc1cc(Cl)cc(-c2noc(N3CCCC4(CN(c5cccnn5)C4)C3)n2)c1 [Compound 196]	19
N#Cc1ccnc(N2CC3(CCCN(c4nc(-c5cc(Cl)cc(Cl)c5)no4)C3)C2)c1 [Compound 197]	2
OCc1ncc(N2CC3(CCCN(c4nc(-c5cc(Cl)cc(Cl)c5)no4)C3)C2)cn1 [Compound 200]	19
Clc1cc(Cl)cc(-c2noc(N3CCCC4(CN(c5cnccn5)C4)C3)n2)c1 [Compound 202]	2
Clc1cc(Cl)cc(-c2noc(N3CCCC4(CN(c5ccncc5)C4)C3)n2)c1 [Compound 203]	1
Cc1cc(N2CC3(CCCN(c4nc(-c5cc(Cl)cc(Cl)c5)no4)C3)C2)cc(C)n1 [Compound 205]	0.16
CC(C)c1cc(N2CC3(CCCN(c4nc(-c5cc(Cl)cc(Cl)c5)no4)C3)C2)ccn1 [Compound 206]	1.6
CCc1cc(N2CC3(CCCN(c4nc(-c5cc(Cl)cc(Cl)c5)no4)C3)C2)ccn1 [Compound 207]	0.4
O=c1cc(N2CC3(CCCN(c4nc(-c5cc(Cl)cc(Cl)c5)no4)C3)C2)cc[nH]1 [Compound 208]	5
Cc1cc(N2CCCC3CN(c4nc(-c5cc(Cl)cc(Cl)c5)no4)CC32)ccn1 (stereo not shown) [Compound 210]	35

Compound	IC50 [µM]
Cc1cc(N2CCC(C)(Nc3nc(-c4cc(Cl)cc(Cl)c4)no3)C2)ccn1 (stereo not shown) [Compound 211]	24
Cc1cc(N2CCC3C2CCCN3c2nc(-c3cc(Cl)cc(Cl)c3)no2)ccn1 (stereo not shown) [Compound 213]	1
Cc1cc(N2CCC3(CC2)CCN(c2nc(-c4cc(Cl)cc(Cl)c4)no2)C3)ccn1 [Compound 214]	0.464
Cc1cc(N2CCC3(CCCN(c4nc(-c5cc(Cl)cc(Cl)c5)no4)C3)CC2)ccn1 [Compound 216]	0.246
Cc1cc(N2CC[C@H](Nc3nc(-c4cc(Cl)cc(Cl)c4)no3)C[C@@H]2C)ccn1 [Compound 217]	29.2
Cc1cc(N2CCC3CN(c4nc(-c5cc(Cl)cc(Cl)c5)no4)CC3C2)ccn1 (stereo not shown) [Compound 219]	4.3
Cc1cc(N2CCC3(CCCN(c4nc(-c5cc(Cl)cc(Cl)c5)no4)C3)C2)ccn1 (stereo not shown) [Compound 223]	12.1
Cc1cc(N2CCC(Nc3nc(-c4cc(Cl)cc(Cl)c4)no3)CC2)ccn1 [Compound 225]	≥ 50
Cc1cc(N2CC3C(C2)C3Nc2nc(-c3cc(Cl)cc(Cl)c3)no2)ccn1 (stereo not shown) [Compound 228]	34.3
Cc1cc(N2CCC3(CCC3Nc3nc(-c4cc(Cl)cc(Cl)c4)no3)CC2)ccn1 (stereo not shown) [Compound 230]	11.5
Cc1cc(N2CCCC3(CCN3c3nc(-c4cc(Cl)cc(Cl)c4)no3)C2)ccn1 (stereo not shown) [Compound 231]	37.3
N#Cc1cncc(N2CC3(CCCN(c4nc(-c5cc(Cl)cc(Cl)c5)no4)C3)C2)c1 [Compound 232]	2
Cc1cc(N2CCC(CNc3nc(-c4cc(Cl)cc(Cl)c4)no3)CC2)ccn1 [Compound 233]	2.75
Cc1cc(N2CC3(CC(Nc4nc(-c5cc(Cl)cc(Cl)c5)no4)C3)C2)ccn1 [Compound 234]	8.03
COc1cccc(-c2noc(N3CCCC4(CCN(c5ccnc(C)c5)CC4)C3)n2)c1 [Compound 236]	0.4
COc1cc(OC)cc(-c2noc(N3CCCC4(CCN(c5ccncc5OC)CC4)C3)n2)c1 [Compound 237]	7.3
Cc1cc(N2CC3(CC(NC(=O)Nc4cc(Cl)cc(Cl)c4)C3)C2)ccn1 [Compound 239, 1-(3,5-dichlorophenyl)-3-(2-(2-methylpyridin-4-yl)-2-azaspiro[3.3]heptan-6-yl)urea]	≥ 50
Cc1cc(N2CC3(CCCN(C(=O)Nc4cc(Cl)cc(Cl)c4)C3)C2)ccn1 [Compound 240]	≥ 50
CCN1CCN(c2nc(-c3cc(OC)cc(OC)c3)no2)CC12CCN(c1ccnc(C)c1)CC2 [Compound 242, 3-(3,5-dimethoxyphenyl)-5-(1-ethyl-9-(2-methylpyridin-4-yl)-1,4,9-triazaspiro[5.5]undecan-4-yl)-1,2,4-oxadiazole]	0.155
COc1cc(CN)cc(-c2noc(N3CCN(C)C4(CCN(c5ccnc(C)c5)CC4)C3)n2)c1 [Compound 243, (3-methoxy-5-(5-(1-methyl-9-(2-methylpyridin-4-yl)-1,4,9-triazaspiro[5.5]undecan-4-yl)-1,2,4-oxadiazol-3-yl)phenyl)methanamine]	0.103
COc1cc(CN(C)C)cc(-c2noc(N3CCN(C)C4(CCN(c5ccnc(C)c5)CC4)C3)n2)c1 [Compound 244, 1-(3-methoxy-5-(5-(1-methyl-9-(2-methylpyridin-4-yl)-1,4,9-triazaspiro[5.5]undecan-4-yl)-1,2,4-oxadiazol-3-yl)phenyl)-N,N-dimethylmethanamine]	0.131

— patent publication US20190374526A1, “Substituted Heterocyclic Compounds as Inhibitors of PRDM9” (Merck Sharp & Dohme Corp., priority 2018, published 2019)
